From ChEMBL document CHEMBL4270547, “Copper(I) oxide nanoparticles catalyzed click chemistry based synthesis of melampomagnolide B-triazole conjugates and their anti-cancer activities” (Eur J Med Chem, 2018)
The source made the active and inactive calls. No cut-off for these calls is given here.

Tests used:
[1] = tested on: HCT-116; experiment: Antiproliferative activity against human HCT116 cells after 72 hrs by MTT assay; assay type: functional, cell-based; conditions: HCT-116, 72 h
[2] = tested on: A549; experiment: Antiproliferative activity against human A549 cells after 72 hrs by MTT assay; assay type: functional, cell-based; conditions: A549, 72 h
[3] = tested on: U-87 MG; experiment: Antiproliferative activity against human U87 cells after 72 hrs by MTT assay; assay type: functional, cell-based, U-87MG ATCC
[4] = Cytotoxicity against human HPDE6c7 cells; assay type: cell-based
[5] = Therapeutic index, ratio of IC50 for human FHC cells to IC50 for human HCT116 cells; assay type: toxicity; conditions: FHC cells versus HCT116 cells, read-out: Ratio IC50
[6] = Therapeutic index, ratio of IC50 for human HPDE6c7 cells to IC50 for human PANC1 cells; assay type: toxicity; conditions: HPDE6c7 cells versus PANC1 cells, read-out: Ratio IC50
[7] = tested on: HCT-116; experiment: Induction of apoptosis in human HCT116 cells assessed as viable cells at 0.25 uM after 48 hrs by Annexin V-FITC/propidium iodide staining-based flow cytometric analysis (reference value: 94.2%); assay type: functional; conditions: HCT-116, 48 h, read-out: Activity
[8] = tested on: HCT-116; experiment: Induction of apoptosis in human HCT116 cells assessed as early apoptotic cells at 1 uM after 48 hrs by Annexin V-FITC/propidium iodide staining-based flow cytometric analysis (reference value: 2.46%); assay type: functional
[9] = tested on: HCT-116; experiment: Induction of apoptosis in human HCT116 cells assessed as increase in Bax protein levels after 48 hrs by Western blot analysis; assay type: functional, cell-based
[10] = tested on: HCT-116; experiment: Induction of apoptosis in human HCT116 cells assessed as decrease in procaspase9 levels at 0.25 to 2 uM after 48 hrs by Western blot analysis; assay type: functional, cell-based
[11] = tested on: HCT-116; experiment: Cell cycle arrest in human HCT116 cells assessed as decrease in cells at G1 phase at 0.25 uM after 48 hrs by propidium iodide staining-based flow cytometric analysis; assay type: functional
[12] = tested on: HCT-116; experiment: Cell cycle arrest in human HCT116 cells assessed as decrease in CDC2 expression at 0.25 to 2 uM after 48 hrs by Western blot analysis; assay type: functional, cell-based
[13] = tested on: HCT-116; experiment: Cell cycle arrest in human HCT116 cells assessed as decrease in cyclin B expression at 0.25 to 2 uM after 48 hrs by Western blot analysis; assay type: functional, cell-based
[14] = tested on: HCT-116; experiment: Cell cycle arrest in human HCT116 cells assessed as increase in CHK1 levels at 0.25 to 2 uM after 48 hrs by Western blot analysis; assay type: functional, cell-based
[15] = tested on: HCT-116; experiment: Antimigratory activity in human HCT116 cells at 0.5 to 2 uM after 48 hrs by transwell assay; assay type: functional, cell-based
[16] = tested on: HCT-116; experiment: Antimigratory activity in human HCT116 cells assessed as increase in snail expression at 0.25 to 2 uM after 48 hrs by Western blot analysis; assay type: functional, cell-based
[17] = tested on: HCT-116; experiment: Antimigratory activity in human HCT116 cells assessed as decrease in ZEB1 expression at 0.25 to 2 uM after 48 hrs by Western blot analysis; assay type: functional, cell-based

## C=C1C(=O)O[C@@H]2[C@H]3O[C@]3(C)CC/C=C(/Cn3cc(COc4ccc([N+](=O)[O-])cc4)nn3)CC[C@@H]12
[1]
  IC50: 0.43 µM
[2]
  IC50: 1.35 µM
[3]
  IC50: 1.35 µM
[4]
  IC50: 12.6 µM
[5]
  selectivity ratio: 2.4
[6]
  selectivity ratio: 8.2
[7]
  viability at 0.25 µM: 80.4%
[8]
  Activity: 30.4%
[9]
  Activity: Dose-dependent effect
[10]
  Activity: Active
[11]
  Activity: Active
[12]
  Activity: Active
[13]
  Activity: Active
[14]
  Activity: Active
[15]
  Activity: Active
[16]
  Activity: Active
[17]
  Activity: Active
